# Reference: US8344163B2, “Nitrile compound and its use for control of arthropod pest” (Sumitomo Chemical Company, Limited, priority 2008, dated 2013)
# System: Blattalla germanica
# Test: Test Example 5: filter paper with sucrose bait, Blattalla germanica male imagoes
# Type: in vivo
# Conditions: 500 ppm active ingredient, 0.7 ml on filter paper; 2 male imagoes; after 6 days
# Procedure: A formulation of any one of the present compounds (1t), (1c), (3), (4), (7) and (8) obtained according to Formulation Example 16 was diluted with water to prepare a test solution having 500 ppm of the active ingredient.
# A filter paper having a diameter of 5.5 cm was spread on the bottom of a polyethylene cup having a diameter of 5.5 cm and 0.7 ml of the test solution was added dropwise onto the filter paper. As a bait, 30 mg of sucrose was uniformly placed on the filter paper. Into the polyethylene cup, 2 male imagoes of Blattalla germanica were released and the cup was sealed with a lid. After 6 days, the number of surviving or dead Blattalla germanica was counted and the death rate of the pest was calculated.
row,Structure (SMILES),pest death rate [%]
1,C#CC1(F)CCC(CCC(C#N)(C#N)CCC(F)(F)F)CC1 (stereo not drawn) [(7)],100
2,C#CC12CCC(CC(C#N)(C#N)CCC(F)(F)F)CC1O2 (stereo not drawn) [(4)],100
3,C#C[C@H]1CC[C@@H](CC(C#N)(C#N)CCC(F)(F)F)CC1 [(1c)],100
4,C#CC1(F)CCC(CC(C#N)(C#N)CCC(F)(F)F)CC1 (stereo not drawn) [(3)],100
5,CON=C1CCC(CC(C#N)(C#N)CCC(F)(F)F)CC1 (stereo not drawn) [(8)],100
6,C#C[C@H]1CC[C@H](CC(C#N)(C#N)CCC(F)(F)F)CC1 [(1t)],100
